In publication PMC6702328, “A VDAC1-Derived N-Terminal Peptide Inhibits Mutant SOD1-VDAC1 Interactions and Toxicity in the SOD1 Model of ALS” (Frontiers in Cellular Neuroscience, 2019):

How the values were obtained:
[1] = tested on: A549 cells; assay: Cell death, PI staining and flow cytometry, A549; type: cell-based, human; conditions: 5 h, serum-free medium, 37°C
Protocol: (§1) NSC-34 cells, a mouse motor neuron-like hybrid cell line, the A549 human lung adenocarcinoma and U-87MG human glioblastoma cell lines were incubated with the (1-26)N-Ter-Antp, D-(15-26)N-Ter-Antp, (1-20)N-Ter-Antp, (5-20)N-Ter-Antp, or (10-20)N-Ter-Antp peptides in the appropriate serum-free growth medium for 5 h at 37°C. Cells were harvested, and analyzed for cell death using propidium iodide (PI) staining and flow cytometry. For XTT, the CellTiter 96 AQueous one-solution cell proliferation assay was used to follow cell viability as described previously ([Leyton-Jaimes et al., 2016]).
(§2) NSC-34 (A), U-87MG (B), or A549 (C) cells were incubated with the indicated concentrations of (1-26)N-Ter-Antp (∙), D-(15-26) (19-26)N-Ter-Antp (▲), (1-20)N-Ter-Antp (∘), (5-20)N-Ter-Antp (□) or (10-20)N-Ter-Antp (◆) peptide for 5 h. Cell death was analyzed using PI staining and flow cytometry. […] Cell viability analysis was performed with the CellTiter 96 AQueous one-solution cell proliferation assay with ELISA at 490 nm. […] The significance of quantitative analysis of triplicates of different biological repeats (n = 3) was performed by Student’s t-test; ^∗∗P < 0.01. […] Twenty-four hours post-transfection, the cells were incubated for 5 h with (10-20)N-Ter-Antp peptide (20 μM) and then analyzed for apoptosis using acridine orange and ethidium bromide staining, as described previously ([McGahon et al., 1995]). Fluorescence microscopy images were analyzed and about 100 to 300 cells were counted for each treatment in representative microscopic fields. The significance of quantitative analysis of triplicates of different biological repeats (n = 3) was performed by one-way Anova; ^∗∗P < 0.01.

[2] = tested on: NSC-34 cells; assay: Cell death, PI staining and flow cytometry, NSC-34; type: cell-based, mouse; conditions: 5 h, serum-free medium, 37°C
Protocol: as §1, §2

[3] = tested on: U-87MG cells; assay: Cell death, PI staining and flow cytometry, U-87MG; type: cell-based, human; conditions: 5 h, serum-free medium, 37°C
Protocol: as §1, §2

[4] = tested on: NSC-34 cells transfected to express human mutant SOD1^G93A; assay: Rescue of mutant SOD1^G93A toxicity, cell viability (XTT / CellTiter 96 AQueous); type: cell-based, mouse; conditions: NSC-34 cells expressing SOD1^G93A, increasing peptide concentrations, 5 h, XTT assay; n = 3
Protocol: as §1, §2
Cell viability was quantified using the XTT assay and apoptosis using acridine orange and ethidium bromide staining. […] Importantly, this effect was observed using the three non-cell death-inducing VDAC1-derived N-terminal peptides, i.e., the (1-20)-N-Ter-Antp, (5-20)-N-Ter-Antp and (10-20)-N-Ter-Antp peptides.

[5] = biological target: T1, SOD1^G93A (Homo sapiens, UniProt P00441, G94A); assay: Microscale thermophoresis (MST) binding to SOD1^G93A
T1 construct: made in house; host or cells: sf-9 cells
Protocol: (§3) Recombinant hSOD1^wt, hSOD1^G93A, and hSOD1^G85R were expressed in sf-9 cells and purified by hydrophobic interaction chromatography using phenyl-Sepharose 6 Fast Flow high sub (Amersham Biosciences), followed by ion exchange chromatography using a HiTrap Q-Sepharose anion exchange column (Amersham Biosciences), as described previously ([Hayward et al., 2002]).
(§4) Microscale thermophoresis analysis was performed using a NanoTemper Monolith NT.115 apparatus, as recently described ([Wienken et al., 2010]; [Zillner et al., 2012]). […] The results are presented as the bound fraction, calculated as follows: fraction bound 100 × (F − Fmin)/(Fmax − Fmin).
(§5) MST measures any variation in the thermal movement of a fluorescently labeled binding partner. The subsequent fluorescence depletion in a heated spot of the protein solution is measured as a function of increasing interacting partner concentration, with dissociation constants (KD) values being derived from the depletion curves ([Wienken et al., 2010]; Figure 1D).
(§6) Molecular weight standards are presented. […] After 20 min of incubation, 3–5 μl aliquots were loaded into MST-grade glass capillaries (NanoTemper Technologies) and thermophoresis was measured with a NanoTemper Monolith-NT115 system. The percentage change in normalized fluorescence (ΔF Norm %) is plotted as a function of protein concentration. […]

[6] = biological target: T2, SOD1^WT (Homo sapiens, UniProt P00441); assay: Microscale thermophoresis (MST) binding to SOD1^WT; conditions: read-out: EC50 (binding affinity, dissociation constant) of peptide to SOD1^WT
T2 construct: made in house; host or cells: sf-9 cells
Protocol: as §3, §4, §5, §6

[7] = biological target: T3, SOD1^G85R (Homo sapiens, UniProt P00441, G86R); assay: Microscale thermophoresis (MST) binding to SOD1^G85R; conditions: fluorescently labeled SOD1^G85R 230 nM, peptide 0.001–50 μM, 10 mM HEPES pH 7.4, 20 min, duplicate reads of triplicate experiments, read-out: EC50 (binding affinity, dissociation constant) of peptide to SOD1^G85R
T3 construct: made in house; host or cells: sf-9 cells
Protocol: as §3, §4, §5, §6

[8] = biological target: T4, ΔN-VDAC1 (Mus musculus, UniProt Q60932); assay: Channel conductance of N-terminally truncated VDAC1 reconstituted into a planar lipid bilayer; type: biochemical, murine; conditions: after addition of 40 μg/ml SOD1, mean ± SEM
T4 construct: inferred from pET21a vector, XhoI cloning and Ni-NTA purification) (C); made in house; host or cells: Escherichia coli BL21(DE3)
Protocol: (§7) Protein expression was induced for 3 h using 1 mM isopropyl-β-D-thiogalactopyranoside (IPTG; Sigma). Proteins were purified on agarose-packed nickel-nitrilotriacetic acid resin (Ni-NTA; Qiagen) in the presence of 8 M urea. Refolding of the eluted protein was performed essentially as described previously ([Hiller et al., 2008]).
The reconstitution of recombinant WT or ΔN-VDAC1 into a planar lipid bilayer (PLB) prepared from soybean asolectin, and subsequent single channel current recordings and data analysis were carried out as described previously ([Gincel et al., 2001]). Currents were recorded under voltage-clamp conditions before and 5 min after the addition of 40 μg of recombinant hSOD1^wt, hSOD1^G93A, or hSOD1^G85R to the cis compartment using a Bilayer Clamp BC-535B amplifier (Warner Instrument, Hamden, CT, United States). Current amplitude histograms were prepared using AxoGraph X software. Relative conductance was determined as the average steady-state conductance at a given voltage normalized to the conductance at 10 mV, the maximal conductance. Relative conductance-voltage plots were prepared using Microsoft Excel software.
(C) Relative conductance of ΔN-VDAC1 as a function of voltage in a step from 60 to –60 mV before (▲) and after addition of SOD1^WT (Δ). Relative conductance (conductance/maximal conductance) was determined as the average steady-state conductance at a given voltage normalized to the conductance at 10 mV, taken as the maximal conductance. […] (E–H) Similar experiments as in (A–D), except that mutant SOD1^G93A was used. (I–L) Similar experiments as in (A–D), except that mutant SOD1^G85R was used.

[9] = biological target: T5, recombinant full length VDAC1 (Mus musculus, UniProt Q60932); assay: Channel conductance of full length VDAC1 reconstituted into a planar lipid bilayer; type: biochemical, murine; conditions: for Conductance, VDAC1 + SOD1: planar lipid bilayer, after addition of 40 μg/ml SOD1, mean ± SEM, SEM
T5 construct: inferred from pET21a vector, XhoI cloning and Ni-NTA purification) (C); made in house; host or cells: Escherichia coli BL21(DE3)
Protocol: as §7
Currents were recorded under voltage-clamp conditions before and 5 min after the addition of 40 μg of recombinant hSOD1^wt, hSOD1^G93A, or hSOD1^G85R to the cis compartment using a Bilayer Clamp BC-535B amplifier (Warner Instrument, Hamden, CT, United States). Current amplitude histograms were prepared using AxoGraph X software. […] Relative conductance-voltage plots were prepared using Microsoft Excel software.
Relative conductance (conductance/maximal conductance) was determined as the average steady-state conductance at a given voltage normalized to the conductance at 10 mV, considered the maximal conductance.

T4 sequence (Q60932 40-296, stated change not applied): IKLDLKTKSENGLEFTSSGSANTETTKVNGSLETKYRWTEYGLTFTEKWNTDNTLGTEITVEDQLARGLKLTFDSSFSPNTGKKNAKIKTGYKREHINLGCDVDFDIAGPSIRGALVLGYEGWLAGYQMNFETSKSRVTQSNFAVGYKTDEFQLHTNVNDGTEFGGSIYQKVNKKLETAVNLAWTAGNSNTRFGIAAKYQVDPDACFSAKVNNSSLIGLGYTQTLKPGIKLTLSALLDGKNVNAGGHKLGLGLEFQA
T5 sequence (Q60932 14-296): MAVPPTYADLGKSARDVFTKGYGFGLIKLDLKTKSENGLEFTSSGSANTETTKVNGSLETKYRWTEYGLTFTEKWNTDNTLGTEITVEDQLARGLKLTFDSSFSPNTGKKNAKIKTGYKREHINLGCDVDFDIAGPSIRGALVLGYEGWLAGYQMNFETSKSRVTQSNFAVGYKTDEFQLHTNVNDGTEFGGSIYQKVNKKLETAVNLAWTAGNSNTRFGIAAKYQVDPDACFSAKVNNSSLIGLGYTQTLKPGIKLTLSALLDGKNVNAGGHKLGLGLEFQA
T1 sequence (P00441 whole entry G94A): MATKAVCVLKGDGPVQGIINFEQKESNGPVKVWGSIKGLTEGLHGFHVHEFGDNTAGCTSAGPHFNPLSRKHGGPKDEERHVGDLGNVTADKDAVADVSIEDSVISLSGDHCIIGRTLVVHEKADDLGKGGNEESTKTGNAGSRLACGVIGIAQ
T3 sequence (P00441 whole entry G86R): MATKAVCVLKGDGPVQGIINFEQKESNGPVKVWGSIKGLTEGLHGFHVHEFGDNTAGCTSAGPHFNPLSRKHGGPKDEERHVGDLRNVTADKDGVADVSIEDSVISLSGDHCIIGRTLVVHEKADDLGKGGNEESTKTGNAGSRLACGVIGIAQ
T2 sequence (P00441 whole entry): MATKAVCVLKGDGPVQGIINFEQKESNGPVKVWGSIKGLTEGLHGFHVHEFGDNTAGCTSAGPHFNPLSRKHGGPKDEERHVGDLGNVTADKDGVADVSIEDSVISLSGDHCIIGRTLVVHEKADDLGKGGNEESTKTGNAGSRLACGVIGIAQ

## 1-MAVPPTYADLGKSARDVFTKG YGFGL-26- RQIKIWFQNRRMKWKK [(1-26)-N-Ter-Antp]
[1]
  Cell death induction in A549 cells: induced massive cell death
[2]
  Cell death induction in NSC-34 cells: induced massive cell death
[3]
  Cell death induction in U-87MG cells: induced massive cell death

## 5-PTYADLGKSARDVFTK-20- RQIKIWFQNRRMKWKK [(5-20)-N-Ter-Antp, like (1-20)-N-Ter-Antp but shortened by four amino acids at the N-terminus]
[1]
  Cell death induction in A549 cells: could not induce cell death
[4]
  Effect on SOD1^G93A toxicity (cell viability): reduced the toxic effect of SOD1^G93A in a concentration-dependent manner
[2]
  Cell death induction in NSC-34 cells: could not induce cell death
[3]
  Cell death induction in U-87MG cells: could not induce cell death

## 14-RDVFTKGYGFGL-26- RQIKIWFQNRRMKWKK [D-(15-26)-N-Ter-Antp]
[1]
  Cell death induction in A549 cells: induced massive cell death
[2]
  Cell death induction in NSC-34 cells: induced massive cell death
[3]
  Cell death induction in U-87MG cells: induced massive cell death

## 159-ETAKSRVTQSNFAVGYKT-177 [LP3, reference compound]
[5]; MST, fluorescently labeled SOD1^G93A 675 nM, LP3 6–40 μM, HEPES buffer
  Binding to mutant SOD1 compared with the (1-26)-N-terminal peptide: significantly lower binding to mutant SOD1

## CSCC[C@H](N)C(=O)N[C@@H](C)C(=O)N[C@H](C(=O)N1CCC[C@H]1C(=O)N1CCC[C@H]1C(=O)N[C@H](C(=O)N[C@@H](Cc1ccc(O)cc1)C(=O)N[C@@H](C)C(=O)N[C@@H](CC(=O)O)C(=O)N[C@@H](CC(C)C)C(=O)NCC(=O)N[C@@H](CCCCN)C(=O)N[C@@H](CO)C(=O)N[C@@H](C)C(=O)N[C@@H](CCCNC(=N)N)C(=O)N[C@@H](CC(=O)O)C(=O)N[C@H](C(=O)N[C@@H](Cc1ccccc1)C(=O)N[C@H](C(=O)N[C@@H](CCCCN)C(=O)NCC(=O)N[C@@H](Cc1ccc(O)cc1)C(=O)NCC(=O)N[C@@H](Cc1ccccc1)C(=O)NCC(=O)N[C@@H](CC(C)C)C(=O)O)[C@@H](C)O)C(C)C)[C@@H](C)O)C(C)C [(1-26)N-Terminal]
[6]
  EC50: > 200 µM
[5]
  EC50: 3.75 µM
[7]
  EC50: 3.75 µM

## SOD1^G85R: recombinant human mutant SOD1 G85R expressed in sf-9 cells
[8]
  Conductance, ΔN-VDAC1 + SOD1: 3.92 ± 0.08 nS
[9]
  Conductance, VDAC1 + SOD1: 2.3 ± 0.35 nS

## SOD1^G93A: recombinant human mutant SOD1 G93A expressed in sf-9 cells
[8]
  Conductance, ΔN-VDAC1 + SOD1: 3.45 ± 0.01 nS

## SOD1^WT: recombinant wild type human SOD1 expressed in sf-9 cells
[8]
  Conductance, ΔN-VDAC1 + SOD1: 3.69 ± 0.13 nS
[9]; highest concentration 60 μg/ml, current-time traces at −10 or 10 mV
  effect on VDAC1 current: had no effect on the current
[9]
  Conductance, VDAC1 + SOD1: 3.84 ± 0.1 nS
